Results on six molecules are retold here after US20070254037A1 (priority 2004, published 2007).

Series [1] relates to lymphnode in the left cervical area (tonsillar carcinoma). In words: Example 13: rods implanted in cervical lymphnode. The series is classed as in vivo, human. On the procedure: A patient presents with a 10 cm diameter lymphnode located in the left cervical area. […] The patient refuses any kind of prolonged therapy. They accept a tumour implantation of a slow release drug. Fourteen 7 cm long rods of lactide-capronolactone containing rotenone, are implanted. The total dose of rotenone delivered over 2 weeks by the rods is 60 mg. […] The patient accepts radiation therapy.

Series [2] relates to metastasis in the 10th dorsal vertebra from a breast tumor. In words: Example 14: intratumoural injection into vertebral metastasis. In kind it is in vivo, human. The settings on record: on the next day; 20 mg as SLN in 1 ml poly(orthoesther) paste. On the procedure:
A person presents with metastases originating from a breast tumor operated and irradiated 3 years before. […] The patient is young and one wants to keep radiotherapy for further recurrences. They benefit from an intratumoural injection of 1 ml of polymeric paste (poly(orthoesther)), containing 20 mg of Antimycin A formulated as SLN. The paste is deposited in the center of the metastasis under fluoroscopy control. The pain drops on the next day by ⅔. […] This allows to visualize the elution rate and the melting process of the polymer, and to better follow and understand the kinetics of the treatment.
At 3 weeks the polymer has nearly totally disappeared, and the patient is sent for the injection of a cement (methylmethacrylate) inside the vertebra, under fluoroscopy. The pain disappears totally and the patient is followed up locally, ready to be treated when new metastases appear.

The conditions of series [3]: rodents; cited from earlier work.
Series [4] has as its system metastatic prostate cancer. To be noted: cited from earlier work.
Series [5] deals with right axillar lymphnode (recurrence of melanoma). In words: Example 11: slow release injection into melanoma axillar lymphnode. In kind it is in vivo, human.
Another series concerns meningioma. Put plainly: Example 16: stereotactic injection into meningioma. In kind it is in vivo, human.
The test system of another series is right breast tumor. In words: Example 12: rods implanted in breast tumor. The series is classed as in vivo, human.
Series [6] has as its system metastatic prostate cancer. In words: Phase I clinical trial of Rhodamine 123 intra-venous infusions. The series is classed as in vivo, human. The settings on record: for a 70 kg patient. On the procedure:
The Huntington Medical Research Institutes are addressing this issue in metastatic prostate cancer (Lawrence W. Jones, M. D. Huntington Memorial Hospital). Recently this institute published the results of a clinical trial where 33 patients with metastatic prostate cancer were treated with Rhodamine 123 intra-venous infusions.
Because inhibitors of oxidative phorphorylation are extremely toxic to a subject in the doses needed for efficacy via the systemic route, such inhibitors have been largely overlooked for effective treatment of conditions such as cancer. […] It is also known that the maximal tolerated dose of Rhodamine 123 delivered intra-venously in man is 95 mg/m^2. For a 70 kg patient, the maximum dose of systemically delivered rhodamine is about 150 mg. […] There was an accumulation of rhodamine in the prostate of the patients, but it was not sufficient to provoke a significant response.

Another series relates to tumour. Put plainly: Rhodamine delivered directly in the tumour (slow release). In kind it is in vivo. The settings on record: 40 or 50 mg directly in the tumour. The text has this: By locally delivering oxidative phosphorylation inhibitors into proliferating cells in a slow release formulation, the delivery period is prolonged i.e. the inhibitors are not cleared by the liver, and the dose received by the tumour is effectively higher than using systemic delivery. Furthemore, the lethal dose can be greatly exceeded. […] Such a dose, delivered systemically, would require 100 g of rhodamine, more than 1000 times the lethal dose. Thus, a composition comprising an oxidative phorphosrylation inhibitor in a slow release formulation increases the effective dose to the tumour and permits greater than lethal dosing.

`C=C(C)[C@H]1Cc2c(ccc3c2O[C@@H]2COc4cc(OC)c(OC)cc4[C@@H]2C3=O)O1` [rotenone]: the mass size in series [1] (initially 10 cm, 6 weeks after rods delivering 60 mg over 2 weeks) is on record as 5.5 cm. The lymphnode outcome in series [1] (new implantation with 30 mg plus radiation dose of 50 Gy) is on record as “totally disappears”.
For Antimycin A, the drop of pain entry in series [2] is reported as “⅔”.
Regarding rhodamine 123, the “LD10 (the dose which kills 10% of animals)” value in series [3] is on record as 20 mg/kg. Further, in series [4] (33 patients with metastatic prostate cancer, intra-venous infusions), the tumour response entry was “no significant tumour response”. Besides, the PSA change result in series [4] (33 patients with metastatic prostate cancer, intra-venous infusions, in some cases) is “slight PSA reduction”. Besides, the maximal tolerated dose in series [4] (delivered intra-venously in man) is listed as 95 mg/m^2.
Consider `O=C(O)CF` [fluoroacetate], for which the remaining induration size in series [5] (6 months later, after additional 6 sessions of radiotherapy at 5 Gy) is recorded as 1 cm. Besides, the lymphnode size in [5] (initially 5 cm, 1 month after 4 mg fluoroacetate slow release) was 3 cm. The “lesion finding on MRI” value with meningioma (MRI two months after 4 mg in poly(ortho)ester) is reported as “partial necrosis”. In the series on meningioma (after surgical intervention), the “tumour necrosis on histological examination” value came out at 80%. Further, in the series with meningioma (initially 3 cm, MRI two months after 4 mg in poly(ortho)ester), the lesion size stood at 2.5 cm.
In the case of sodium arsenate, the tumor diameter with right breast tumor (after second session, 3 rods, total dose 30 mg) worked out at 3 cm; with right breast tumor (initially 6 cm, 2 months after four rods with 10 mg each) it was 4 cm.
On to rhodamine, for which the “maximum dose of systemically delivered rhodamine” value in series [6] is “about 150 mg”. Moreover, in the series on tumour, the tumour outcome is recorded as “tumour death”. Besides, in [4] (systemic, at the maximum non-lethal dose), the “effect on prostate tumours” value is on record as “no useful effect”.
